Reference: US9718804B2, “GSK-3 inhibitors” (BRISTOL-MYERS SQUIBB COMPANY, priority 2013, dated 2017)
Read-outs that look alike come from different tables or passages of the source.

What was measured:
GSK3β = GSK3β (Homo sapiens, UniProt P49841); experiment: GSK3β kinase assay (Caliper LabChip, fluoresceinated peptide substrate); type: biochemical
Procedure, shortened: (§1)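 Readout: electrophoretic resolution of phosphorylated from unphosphorylated peptide on a LabChip3000. Reactions incubated 20 h at room temperature before termination with 35 mM EDTA. Eleven-concentration curves gave IC50 via non-linear regression.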

GSK3α = GSK3α (Homo sapiens, UniProt P49840); experiment: GSK3α kinase assay (Caliper LabChip, fluoresceinated peptide substrate); type: biochemical
Procedure, shortened: as §1

pTau = pTau assay (no method described); type: cell-based
[1] = first value of the cell, 250 pM enzyme, 20 uM ATP, 20 hours at room temperature, read-out: GSK3β/α (nM): GSK3β IC50
[2] = second value of the cell, 250 pM enzyme, 20 uM ATP, 20 hours at room temperature, read-out: GSK3β/α (nM): GSK3α IC50

GSK3β, sequence (P49841 whole entry, species assumed): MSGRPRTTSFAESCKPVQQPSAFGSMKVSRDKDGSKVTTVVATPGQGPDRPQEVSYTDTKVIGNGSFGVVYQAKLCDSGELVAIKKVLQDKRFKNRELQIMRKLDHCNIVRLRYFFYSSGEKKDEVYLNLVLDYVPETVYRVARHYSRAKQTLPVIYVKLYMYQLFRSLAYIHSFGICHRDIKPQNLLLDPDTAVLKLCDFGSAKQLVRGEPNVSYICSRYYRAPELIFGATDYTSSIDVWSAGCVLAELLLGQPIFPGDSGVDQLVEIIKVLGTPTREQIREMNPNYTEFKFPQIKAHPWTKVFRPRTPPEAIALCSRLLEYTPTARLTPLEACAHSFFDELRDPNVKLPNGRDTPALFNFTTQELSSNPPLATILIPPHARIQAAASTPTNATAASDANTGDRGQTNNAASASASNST
GSK3α, sequence (P49840 whole entry, species assumed): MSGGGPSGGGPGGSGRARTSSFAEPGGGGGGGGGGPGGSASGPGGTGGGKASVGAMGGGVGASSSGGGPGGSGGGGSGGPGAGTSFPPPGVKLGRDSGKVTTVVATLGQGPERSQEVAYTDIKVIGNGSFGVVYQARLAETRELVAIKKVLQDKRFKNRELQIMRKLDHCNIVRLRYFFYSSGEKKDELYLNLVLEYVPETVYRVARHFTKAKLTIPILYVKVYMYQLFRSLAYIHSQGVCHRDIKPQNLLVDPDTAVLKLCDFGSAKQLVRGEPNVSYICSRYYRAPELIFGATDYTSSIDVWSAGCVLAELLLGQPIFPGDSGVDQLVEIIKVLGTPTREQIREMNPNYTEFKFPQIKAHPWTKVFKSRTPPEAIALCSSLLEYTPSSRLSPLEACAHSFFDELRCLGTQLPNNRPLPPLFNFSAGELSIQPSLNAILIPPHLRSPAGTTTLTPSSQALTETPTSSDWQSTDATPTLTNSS

| Compound | IC50 (GSK3β; [1]) | IC50 (GSK3α) | IC50 (pTau) | IC50 (GSK3β) | IC50 (GSK3α; [2]) |
| --- | --- | --- | --- | --- | --- |
| CC(=O)c1ccncc1NC(=O)c1ccnc(Nc2ccc(C(F)(F)F)cn2)c1 [Example 37, N-(4-Acetylpyridin-3-yl)-2-((5-(trifluoromethyl)pyridin-2-yl)amino)isonicotinamide] | 3.3 nM | 1.5 nM | 130 nM | – | – |
| N#CC1(c2ccc(Nc3cc(C(=O)Nc4cnccc4-c4ccccc4)ccn3)nc2)CC1 [Example 62, 2-((5-(1-Cyanocyclopropyl)pyridin-2-yl)amino)-N-(4-phenylpyridin-3-yl)isonicotinamide] | 0.62 nM | 0.29 nM | 37 nM | – | – |
| CCC1(c2cc(Cl)ncc2NC(=O)c2ccnc(Nc3ccc(C(F)(F)F)cn3)c2)OCCO1 [Example 79, N-(6-Chloro-4-(2-ethyl-1,3-dioxolan-2-yl)pyridin-3-yl)-2-((5-(trifluoromethyl)pyridin-2-yl)amino)isonicotinamide] | 0.31 nM | 0.17 nM | 33 nM | – | – |
| O=C(Nc1cnccn1)c1ccnc(Nc2ccc(C(F)(F)F)cn2)c1 [Example 189, N-(Pyrazin-2-yl)-2-((5-(trifluoromethyl)pyridin-2-yl)amino)isonicotinamide] | 11 nM | 4.3 nM | 1030 nM | – | – |
| CN(C)S(=O)(=O)c1ccc(Nc2cc(C(=O)Nc3cnccc3OCC(F)(F)F)ccn2)nc1 [Example 30, 2-((5-(N,N-Dimethylsulfamoyl)pyridin-2-yl)amino)-N-(4-(2,2,2-trifluoroethoxy)pyridin-3-yl)isonicotinamide] | 0.5 nM | 0.31 nM | 24 nM | – | – |
| CCC1(c2cc(Cl)ncc2NC(=O)c2ccnc(Nc3ccc(F)cn3)c2)OCCO1 [Example 113, N-(6-Chloro-4-(2-ethyl-1,3-dioxolan-2-yl)pyridin-3-yl)-2-((5-fluoropyridin-2-yl)amino)isonicotinamide] | 1.7 nM | 0.04 nM | 14 nM | – | – |
| O=C(Nc1cnccc1C1(F)COC1)c1ccnc(Nc2ccc(C(F)(F)F)cn2)c1 [Example 45, N-(4-(3-Fluorooxetan-3-yl)pyridin-3-yl)-2-((5-(trifluoromethyl)pyridin-2-yl)amino)isonicotinamide] | 17 nM | 11 nM | 150 nM | – | – |
| O=C(Nc1cnc(F)cc1OCC(F)F)c1ccnc(Nc2ccc(C(F)(F)F)cn2)c1 [Example 80, N-(4-(2,2-Difluoroethoxy)-6-fluoropyridin-3-yl)-2-((5-(trifluoromethyl)pyridin-2-yl)amino)isonicotinamide] | 6.2 nM | 3.3 nM | 86 nM | – | – |
| COc1ccc(-c2ccncc2NC(=O)c2ccnc(Nc3ccc(C(F)(F)F)cn3)c2)c(F)c1 [Example 55, N-(4-(2-Fluoro-4-methoxy-phenyl)pyridin-3-yl)-2-((5-(trifluoromethyl)pyridin-2-yl)amino)isonicotinamide] | 3.2 nM | 0.89 nM | 86 nM | – | – |
| O=C(Nc1cnccc1C1OCCO1)c1ccnc(Nc2ccc(C(F)(F)F)cn2)c1 [Example 40, N-(4-(1,3-Dioxolan-2-yl)pyridin-3-yl)-2-((5-(trifluoromethyl)pyridin-2-yl)amino)isonicotinamide] | 23 nM | 46 nM | 3300 nM | – | – |
| O=C(Nc1cnccc1C1=CCCCO1)c1ccnc(Nc2ccc(C(F)(F)F)cn2)c1 [Example 39, N-(4-(3,4-Dihydro-2H-pyran-6-yl)pyridin-3-yl)-2-((5-(trifluoromethyl)pyridin-2-yl)amino)isonicotinamide] | 1.2 nM | 0.93 nM | 140 nM | – | – |
| CC(C)(C)S(=O)(=O)c1ccncc1NC(=O)c1ccnc(Nc2ccc(C(F)(F)F)cn2)c1 [Example 187, N-(4-(tert-butylsulfonyl)pyridin-3-yl)-2-((5-(trifluoromethyl)pyridin-2-yl)amino)isonicotinamide] | 0.4 nM | 0.07 nM | 1.1 nM | – | – |
| CC(C)CSc1ccncc1NC(=O)c1ccnc(Nc2ccc(C(F)(F)F)cn2)c1 [Example 175, N-(4-(Isobutylthio)pyridin-3-yl)-2-((5-(trifluoromethyl)pyridin-2-yl)amino)isonicotinamide] | 1.1 nM | 0.4 nM | 78 nM | – | – |
| Cc1cc(-c2ccccc2)c(NC(=O)c2ccnc(Nc3ccc(C(F)(F)F)cn3)c2)cn1 [Example 68, N-(6-Methyl-4-phenylpyridin-3-yl)-2-((5-(trifluoromethyl)pyridin-2-yl)amino)isonicotinamide] | 12 nM | 5.7 nM | 1010 nM | – | – |
| CC(C)Sc1ccncc1NC(=O)c1ccnc(Nc2ccc(C(F)(F)F)cn2)c1 [Example 173, N-(4-(Isopropylthio)pyridin-3-yl)-2-((5-(trifluoromethyl)pyridin-2-yl)amino)isonicotinamide] | 0.52 nM | 0.19 nM | 48 nM | – | – |
| O=C(Nc1cnccc1-c1ccccc1)c1ccnc(Nc2ccc(Cl)cn2)c1 [Example 59, 2-((5-Chloropyridin-2-yl)amino)-N-(4-phenylpyridin-3-yl)isonicotinamide] | 0.9 nM | 0.39 nM | 45 nM | – | – |

| Compound | IC50 (GSK3β; [1]) | IC50 (GSK3α) | IC50 (pTau) | IC50 (GSK3β) | IC50 (GSK3α; [2]) |
| --- | --- | --- | --- | --- | --- |
| O=C(Nc1cnccc1N1CCC(F)(F)CC1)c1ccnc(Nc2ccc(C(F)(F)F)cn2)c1 [Example 24, N-(4-(4,4-Difluoropiperidin-1-yl)pyridin-3-yl)-2-((5-(trifluoromethyl)pyridin-2-yl)amino)isonicotinamide] | 0.69 nM | 0.49 nM | 4.6 nM | – | – |
| O=C(Nc1cnccc1-c1ccc(F)cc1)c1ccnc(Nc2ccc(Cl)cn2)c1 [Example 58, 2-((5-Chloropyridin-2-yl)amino)-N-(4-(4-fluorophenyl)pyridin-3-yl)isonicotinamide] | 0.86 nM | 0.36 nM | 57 nM | – | – |
| O=C(Nc1cnccc1OCC(F)(F)F)c1ccnc(Nc2ccc(Cl)cn2)c1 [Example 31, 2-((5-Chloropyridin-2-yl)amino)-N-(4-(2,2,2-trifluoroethoxy)pyridin-3-yl)isonicotinamide] | 0.74 nM | 0.3 nM | 22 nM | – | – |
| O=C(Nc1cnccc1-c1ccccc1)c1ccnc(Nc2ccc(Br)cn2)c1 [Example 63, 2-((5-Bromopyridin-2-yl)amino)-N-(4-phenylpyridin-3-yl)isonicotinamide] | 9.3 nM | 3.4 nM | 150 nM | – | – |
| O=C(Nc1cncc(-c2ccccc2Cl)c1)c1ccnc(Nc2ccc(C(F)(F)F)cn2)c1 [Example 128, N-(5-(2-Chlorophenyl)pyridin-3-yl)-2-((5-(trifluoromethyl)pyridin-2-yl)amino)isonicotinamide] | 12 nM | 16 nM | 2180 nM | – | – |
| Cc1ccncc1NC(=O)c1ccnc(Nc2ccc(C#N)cn2)c1 [Example 26, 2-((5-Cyanopyridin-2-yl)amino)-N-(4-methylpyridin-3-yl)isonicotinamide] | – | – | 670 nM | 14 nM | 8.2 nM |
| N#Cc1ccc(Nc2cc(C(=O)Nc3cnccc3OCC(F)(F)F)ccn2)nc1 [Example 29, 2-((5-Cyanopyridin-2-yl)amino)-N-(4-(2,2,2-trifluoroethoxy)pyridin-3-yl)isonicotinamide] | 0.69 nM | 0.62 nM | 16 nM | – | – |
| O=C(Nc1cncc(-c2ccccc2)c1)c1ccnc(Nc2cccc(C(F)(F)F)n2)c1 [Example 144, N-(5-Phenylpyridin-3-yl)-2-((6-(trifluoromethyl)pyridin-2-yl)amino)isonicotinamide] | 10 nM | 39 nM | 910 nM | – | – |
| O=C(Nc1cncc2ccccc12)c1ccnc(Nc2ccc(C(F)(F)F)cn2)c1 [Example 64, N-(Isoquinolin-4-yl)-2-((5-(trifluoromethyl)pyridin-2-yl)amino)isonicotinamide] | 10 nM | 3.1 nM | 610 nM | – | – |
| CC(=O)c1c(NC(=O)c2ccnc(Nc3ccc(C(F)(F)F)cn3)c2)cnn1C [Example 206, N-(5-Acetyl-1-methyl-1H-pyrazol-4-yl)-2-((5-(trifluoromethyl)pyridin-2-yl)amino)isonicotinamide] | 3.1 nM | 2.7 nM | 400 nM | – | – |
| O=C(Nc1cnc(Cl)cc1C1(O)CCOCC1)c1ccnc(Nc2ccc(Cl)cn2)c1 [Example 111, N-(6-Chloro-4-(4-hydroxytetrahydro-2H-pyran-4-yl)pyridin-3-yl)-2-((5-chloropyridin-2-yl)amino)isonicotinamide] | – | – | 530 nM | 2.6 nM | 1.4 nM |
| O=C(Nc1cncc(-c2ccccc2F)c1)c1ccnc(Nc2ccc(S(=O)(=O)N3CCCCC3)cn2)c1 [Example 159, N-(5-(2-Fluorophenyl)pyridin-3-yl)-2-((5-(piperidin-1-ylsulfonyl)pyridin-2-yl)amino)isonicotinamide] | – | 1.9 nM | 960 nM | 3.9 nM | – |
| O=C(Nc1cnccc1-c1ccccc1)c1cc(Nc2ccc(C(F)(F)F)cn2)ncc1F [Example 167, 5-Fluoro-N-(4-phenylpyridin-3-yl)-2-((5-(trifluoromethyl)pyridin-2-yl)amino)isonicotinamide] | 1.8 nM | 0.55 nM | 230 nM | – | – |
| O=C(Nc1cnccc1-c1ccc(F)cc1C(F)(F)F)c1ccnc(Nc2ccc(C(F)(F)F)cn2)c1 [Example 53, N-(4-(2-Trifluoromethyl-4-fluoro-phenyl)pyridin-3-yl)-2-((5-(trifluoromethyl)pyridin-2-yl)amino)isonicotinamide] | 0.51 nM | 0.57 nM | 8.3 nM | – | – |
| Cc1ccnc(Nc2cc(C(=O)Nc3cnccc3-c3ccccc3)ccn2)c1 [Example 6, 2-((4-Methylpyridin-2-yl)amino)-N-(4-phenylpyridin-3-yl)isonicotinamide] | 1.1 nM | 1.3 nM | 164 nM | – | – |
